Source: PMC8242077, “Allosteric drug transport mechanism of multidrug transporter AcrB” (Nature Communications, 2021)

Molecular target: T1, AcrB (Escherichia coli, UniProt P31224)
T1 construct: full-length, His-tagged (pET24acrBHis), from E. coli C43(DE3) delta-acrAB; homotrimer, DDM-solubilised; crystallised with DARPins
Experiment: X-ray co-crystal structure
Type: binding
Conditions: DARPin chaperone

T1 sequence (P31224 whole entry): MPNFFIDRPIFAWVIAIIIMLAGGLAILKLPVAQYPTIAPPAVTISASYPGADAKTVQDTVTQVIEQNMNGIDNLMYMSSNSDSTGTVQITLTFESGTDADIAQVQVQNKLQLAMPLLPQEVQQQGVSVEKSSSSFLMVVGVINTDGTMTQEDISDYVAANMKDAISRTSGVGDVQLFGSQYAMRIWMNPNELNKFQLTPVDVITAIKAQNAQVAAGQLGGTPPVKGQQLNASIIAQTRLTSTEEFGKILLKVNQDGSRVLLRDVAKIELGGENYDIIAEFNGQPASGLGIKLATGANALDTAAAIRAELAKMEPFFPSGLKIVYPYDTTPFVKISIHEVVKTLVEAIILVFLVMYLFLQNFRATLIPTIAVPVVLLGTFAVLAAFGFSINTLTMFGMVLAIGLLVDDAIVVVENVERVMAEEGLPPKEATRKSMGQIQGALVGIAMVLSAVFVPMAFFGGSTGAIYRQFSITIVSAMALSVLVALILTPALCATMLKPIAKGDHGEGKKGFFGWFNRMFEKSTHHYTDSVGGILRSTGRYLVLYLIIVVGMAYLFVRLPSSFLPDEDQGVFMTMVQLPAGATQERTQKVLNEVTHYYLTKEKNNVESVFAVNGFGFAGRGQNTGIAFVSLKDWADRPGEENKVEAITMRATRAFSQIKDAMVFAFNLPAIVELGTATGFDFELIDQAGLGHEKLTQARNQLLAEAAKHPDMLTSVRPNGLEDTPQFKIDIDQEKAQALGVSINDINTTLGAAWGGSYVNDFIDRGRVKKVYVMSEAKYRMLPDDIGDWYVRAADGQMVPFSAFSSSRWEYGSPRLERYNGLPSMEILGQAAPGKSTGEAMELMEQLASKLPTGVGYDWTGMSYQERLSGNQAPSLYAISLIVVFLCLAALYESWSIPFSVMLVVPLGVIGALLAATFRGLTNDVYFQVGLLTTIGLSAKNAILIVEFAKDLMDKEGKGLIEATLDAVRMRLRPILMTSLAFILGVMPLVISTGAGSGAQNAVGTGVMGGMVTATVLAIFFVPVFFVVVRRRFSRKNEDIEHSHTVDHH

Row | SMILES | X-ray co-crystal structure (access pocket of L protomer, crystallised with 3 mM rifampicin) | X-ray co-crystal structure (T protomer: TMD-BP, TM1/TM2 groove and TM7/TM8 groove, co-crystallised with 1 mM each fusidic acid, erythromycin, linezolid, oxacillin)
1 | CO[C@H]1/C=C/O[C@@]2(C)Oc3c(C)c(O)c4c(O)c(c(C=O)c(O)c4c3C2=O)NC(=O)/C(C)=C\C=C\[C@H](C)[C@H](O)[C@@H](C)[C@@H](O)[C@@H](C)[C@H](OC(C)=O)[C@@H]1C [3-formylrifamycin SV] | co-crystal AcrB/3-formylrifamycin SV (3-FOR) structure | –
2 | CC(=O)O[C@H]1C[C@@]2(C)[C@@H](C[C@@H](O)[C@H]3[C@@]4(C)CC[C@@H](O)[C@@H](C)[C@@H]4CC[C@@]32C)/C1=C(\CCC=C(C)C)C(=O)O [fusidic acid] | – | co-structure with FUA bound to a deep concave crevice surrounded by TM2, TM4, TM10-12
